Results reported in patent publication EP0064445A1, “N-substituted 2,4-dialkoxybenzene sulfon amides” (CHOAY S.A., priority 1981, dated 1982).

These molecules were tested on souris SWISS (assay: Interaction with pentobarbital: pentobarbital sleep time in mice). Conditions: male SWISS mice, lots of 10; 200 mg/kg oral, 60 min before pentobarbital 40 mg/kg i.p.
Assay type: in vivo
Description: Les essais sont réalisés sur des souris SWISS, EOPS de sexe mâle, pesant de 20 à 24 g, en provenance du centre d'élevage de LE GENEST.
Les animaux sont acclimatés au moins 8 jours à l'animalerie du laboratoire avant les essais.
Les lots sont de 10 souris par test et par produit.
A titre de produits de référence, pour effectuer les essais témoins, on a utilisé les trois substances suivantes : • - N-[(éthyl-1 pyrrolidinyl-2) méthy17méthoxy-2 sulfamoyl-5 benzamide connue sous la désignation sulpiride; • - N-[(éthyl-1 pyrrolidinyl-2)méthy17méthoxy-2 éthylsulfonyl-5 benzamide connue sous la désignation sultopride; • - N-(diéthylamino-2 éthyl) méthoxy-2 méthylsulfonyl-5 benzamide connue sous la désignation tiapride.
Les composés selon l'invention et les substances de référence sont administrés en suspension aqueuse dans l'eau ordinaire à 3% en gomme arabique pour la voie orale (tests d'interactions avec les barbituriques).
Le réactif pharmacologique à savoir le pentobarbital est administré en solution dans du soluté isotonique de NaCl.
Les volumes administrés sont de 0,5 ml d'une solution à 1,6 g/1 pour 20 g de poids corporel par voie intrapérito- néale (40 mg/kg).
Pour effectuer ces essais, on administre à des lots de 10 souris SWISS mâles les composés selon l'invention ou les produits de référence (à savoir sulpiride, sultopride ou tiapride) par voie orale à raison de 200 mg/kg. 60 minutes après l'ingestion des composés selon l'invention ou des produits de référence, on administre aux animaux le pentobarbital sous forme sodique tel que celui commercialisé sous la marque NEMBUTAL. On mesure ensuite : • - le temps d'endormissement, • - le temps de sommeil, et on détermine le paurcentage de variations en plus ou en moins du temps de sommeil. Les résultats de ces essais figurent dans le tableau II suivant.

`COc1cc(OC)c(S(=O)(=O)NCCCN2CCCCC2)cc1Br` [Produit 932] and `COc1cc(OC)c(S(=O)(=O)NCCN2CCCCC2)cc1Br` [Produit 927] are within error of each other in “Temps de sommeil (pentobarbital)” value: 142 ± 15 mn for the first, 169 ± 26 mn for the second.

`COc1cc(OC)c(S(=O)(=O)NCCCN2CCOCC2)cc1Cl` [Produit 889] and `COc1cc(OC)c(S(=O)(=O)NCCN2CCOCC2)cc1Cl` [Produit 884] are within error of each other in “Temps de sommeil (pentobarbital)” value: 156 ± 15 mn for the first, 150 ± 24 mn for the second.

`COc1cc(OC)c(S(=O)(=O)NCCN2CCCCC2)cc1Cl` [Produit 883] and `COc1cc(OC)c(S(=O)(=O)NCCN2CCCC2)cc1Cl` [Produit 882] are the same in “Temps de sommeil (pentobarbital)” value: 176 ± 12 mn for the first, 176 ± 21 mn for the second.

`COc1cc(OC)c(S(=O)(=O)NCCN2CCCC2)cc1Br` [Produit 926] and `COc1cc(OC)c(S(=O)(=O)NCCN2CCOCC2)cc1Br` [Produit 928] are within error of each other in “Temps de sommeil (pentobarbital)” value: 168 ± 30 mn for the first, 165 ± 24 mn for the second.

`COc1cc(OC)c(S(=O)(=O)NCCCN2CCOCC2)cc1Br` [Produit 933] and `COc1cc(OC)c(S(=O)(=O)NCCCN2CCCCC2)cc1Cl` [Produit 888] are within error of each other in “Temps de sommeil (pentobarbital)” value: 180 ± 32 mn for the first, 140 ± 20 mn for the second.

Same assay, conditions: result in words; 200 mg/kg oral, mice

With `CCN1CCCC1CNC(=O)c1cc(S(N)(=O)=O)ccc1OC` (stereo not shown) [sulpiride, reference compound] the “effet sur le sommeil au pentobarbital” value was “tantôt potentialisateur, tantôt antagoniste”.
With `CCN1CCCC1CNC(=O)c1cc(S(=O)(=O)CC)ccc1OC` (stereo not shown) [sultopride, reference compound] the “effet sur le sommeil au pentobarbital” value was “potentialisateurs”.
With `CCN(CC)CCNC(=O)c1cc(S(C)(=O)=O)ccc1OC` [tiapride, N-(diéthylamino-2 éthyl) méthoxy-2 méthylsulfonyl-5 benzamide, reference compound] the “effet sur le sommeil au pentobarbital” value was “potentialisateurs”.
